# Source: US4929542A, “In vitro screening test for mutagenicity and genotoxicity during spermatogenesis” (Cornell Research Foundation, Inc., priority 1987, dated 1990)
# Where two headings read alike, the source gives them in different places.
# What was measured:
# [1] = tested on: Xenopus laevis testis explants (round spermatids); experiment: In vitro spermatid micronucleus assay (percent round spermatids with micronuclei in cultured testis explants); details: for relative in vitro clastogenic potency: day 30 micronucleus counts vs product of mutagen dose and exposure time (FIG. 7)
# [2] = tested on: chromosome aberrations, meiotic prophase; details: male mouse; cited from earlier work
smiles,measurement,setting,value
"Cc1c2ccccc2c(C)c2c1ccc1ccccc12 [DMBA, 9,10-dimethyl-1,2-benzanthracene]",Percent Round Spermatids With Micronuclei,"[1]; DMBA 10^-4 moles/L, 24 hr incubation, post-DMBA culture Day 2",.16 +/- .04%
same,Percent Round Spermatids With Micronuclei,"[1]; DMBA 10^-4 moles/L, 24 hr incubation, post-DMBA culture Day 5",.15 +/- .06%
same,Percent Round Spermatids With Micronuclei,"[1]; DMBA 10^-4 moles/L, 24 hr incubation, post-DMBA culture Day 8",.17 +/- .05%
same,Percent Round Spermatids With Micronuclei,"[1]; DMBA 10^-4 moles/L, 24 hr incubation, post-DMBA culture Day 15",.48 +/- .12%
same,Percent Round Spermatids With Micronuclei,"[1]; DMBA 10^-4 moles/L, 24 hr incubation, post-DMBA culture Day 22",.28 +/- .12%
same,Percent Round Spermatids With Micronuclei,"[1]; DMBA 10^-4 moles/L, 24 hr incubation, post-DMBA culture Day 29, p < .001",1.07 +/- .14%
same,"fold increase in spermatid micronucleus frequency, 72 hr relative to 24 hr incubation","[1]; DMBA 10^-5 M (2.6 mg/L), culture day 30",3 fold
same,Percent Round Spermatids With Micronuclei,"[1]; DMBA 10^-5 moles/L, 24 hr incubation, post-DMBA culture Day 2",.19 +/- .01%
same,Percent Round Spermatids With Micronuclei,"[1]; DMBA 10^-5 moles/L, 24 hr incubation, post-DMBA culture Day 5",.16 +/- .06%
same,Percent Round Spermatids With Micronuclei,"[1]; DMBA 10^-5 moles/L, 24 hr incubation, post-DMBA culture Day 8",.39 +/- .28%
same,Percent Round Spermatids With Micronuclei,"[1]; DMBA 10^-5 moles/L, 24 hr incubation, post-DMBA culture Day 15",.20 +/- .001%
same,Percent Round Spermatids With Micronuclei,"[1]; DMBA 10^-5 moles/L, 24 hr incubation, post-DMBA culture Day 22",.48 +/- .13%
same,Percent Round Spermatids With Micronuclei,"[1]; DMBA 10^-5 moles/L, 24 hr incubation, post-DMBA culture Day 29, p < .01",.83 +/- .06%
same,Percent Round Spermatids With Micronuclei,"[1]; DMBA 10^-6 moles/L, 24 hr incubation, post-DMBA culture Day 2",.28 +/- .13%
same,Percent Round Spermatids With Micronuclei,"[1]; DMBA 10^-6 moles/L, 24 hr incubation, post-DMBA culture Day 5",.15 +/- .06%
same,Percent Round Spermatids With Micronuclei,"[1]; DMBA 10^-6 moles/L, 24 hr incubation, post-DMBA culture Day 8",.16 +/- .06%
same,Percent Round Spermatids With Micronuclei,"[1]; DMBA 10^-6 moles/L, 24 hr incubation, post-DMBA culture Day 15",.39 +/- .01%
same,Percent Round Spermatids With Micronuclei,"[1]; DMBA 10^-6 moles/L, 24 hr incubation, post-DMBA culture Day 22",.30 +/- .14%
same,Percent Round Spermatids With Micronuclei,"[1]; DMBA 10^-6 moles/L, 24 hr incubation, post-DMBA culture Day 29, p < .05",.68 +/- .01%
same,Percent Round Spermatids With Micronuclei,"[1]; DMBA 10^-7 moles/L, 24 hr incubation, 0.1% DMSO, post-DMBA culture Day 2, mean +/- s.d., n=2",.29 +/- .14%
same,Percent Round Spermatids With Micronuclei,"[1]; DMBA 10^-7 moles/L, 24 hr incubation, post-DMBA culture Day 5",.16 +/- .06%
same,Percent Round Spermatids With Micronuclei,"[1]; DMBA 10^-7 moles/L, 24 hr incubation, post-DMBA culture Day 8",.21 +/- .02%
same,Percent Round Spermatids With Micronuclei,"[1]; DMBA 10^-7 moles/L, 24 hr incubation, post-DMBA culture Day 15",.28 +/- .13%
same,Percent Round Spermatids With Micronuclei,"[1]; DMBA 10^-7 moles/L, 24 hr incubation, post-DMBA culture Day 22",.19 +/- .02%
same,Percent Round Spermatids With Micronuclei,"[1]; DMBA 10^-7 moles/L, 24 hr incubation, post-DMBA culture Day 29",.36 +/- .05%
same,increase in spermatid micronucleus frequency,"[1]; DMBA, 24 hr exposure",dose-dependent increase in the spermatid micronucleus frequency only after 29 additional days of culture
same,Percent Round Spermatids With Micronuclei,"[1]; Table 4: DMBA 10^-5 moles/L, 24 hr incubation, subsequent culture 29 days, P < .05",.86 +/- .10%
same,Percent Round Spermatids With Micronuclei,"[1]; Table 4: DMBA 10^-5 moles/L, 72 hr incubation, subsequent culture 27 days, P < .001",2.52 +/- .44%
same,relative in vitro clastogenic potency,[1],AD>CP>DMBA
"O=P1(N(CCCl)CCCl)NCCCO1 (stereo not shown) [CP, cyclophosphamide]",induction of chromosome aberrations,[2],induction of chromosome aberrations throughout meiotic prophase
same,Micronucleus %,[1],.15 +/- .06%
same,induction of spermatid micronuclei relative to concurrent controls,[1],did not result in a significant induction of spermatid micronuclei
same,Percent Round Spermatids With Micronuclei,"[1]; CP 10^-4 moles/L, 24 hr incubation, post-CP culture Day 2",.30 +/- .14%
same,Percent Round Spermatids With Micronuclei,"[1]; CP 10^-4 moles/L, 24 hr incubation, post-CP culture Day 5",.29 +/- .14%
same,Percent Round Spermatids With Micronuclei,"[1]; CP 10^-4 moles/L, 24 hr incubation, post-CP culture Day 8",.29 +/- .13%
same,Percent Round Spermatids With Micronuclei,"[1]; CP 10^-4 moles/L, 24 hr incubation, post-CP culture Day 21",.25 +/- .07%
same,Percent Round Spermatids With Micronuclei,"[1]; CP 10^-4 moles/L, 24 hr incubation, post-CP culture Day 29, p < .001",2.70 +/- .13%
same,Micronucleus %,"[1]; CP 10^-4 moles/L, 72 hr incubation, cultured 6 days after",.27 +/- .11%
same,Percent Round Spermatids With Micronuclei,"[1]; CP 10^-5 moles/L, 24 hr incubation, post-CP culture Day 2",.20 +/- .01%
same,Percent Round Spermatids With Micronuclei,"[1]; CP 10^-5 moles/L, 24 hr incubation, post-CP culture Day 5",.19 +/- .01%
same,Percent Round Spermatids With Micronuclei,"[1]; CP 10^-5 moles/L, 24 hr incubation, post-CP culture Day 8",.29 +/- .14%
same,Percent Round Spermatids With Micronuclei,"[1]; CP 10^-5 moles/L, 24 hr incubation, post-CP culture Day 15",.38 +/- .26%
same,Percent Round Spermatids With Micronuclei,"[1]; CP 10^-5 moles/L, 24 hr incubation, post-CP culture Day 21",.41 +/- .16%
same,Percent Round Spermatids With Micronuclei,"[1]; CP 10^-5 moles/L, 24 hr incubation, post-CP culture Day 29, P < .01",1.90 +/- .43%
same,Micronucleus %,"[1]; CP 10^-5 moles/L, 72 hr incubation, cultured 6 days after",.19 +/- .01%
same,Percent Round Spermatids With Micronuclei,"[1]; CP 10^-6 moles/L, 24 hr incubation, post-CP culture Day 2",.37 +/- .28%
same,Percent Round Spermatids With Micronuclei,"[1]; CP 10^-6 moles/L, 24 hr incubation, post-CP culture Day 5",.37 +/- .29%
same,Percent Round Spermatids With Micronuclei,"[1]; CP 10^-6 moles/L, 24 hr incubation, post-CP culture Day 8",.15 +/- .06%
same,Percent Round Spermatids With Micronuclei,"[1]; CP 10^-6 moles/L, 24 hr incubation, post-CP culture Day 15",.49 +/- .13%
same,Percent Round Spermatids With Micronuclei,"[1]; CP 10^-6 moles/L, 24 hr incubation, post-CP culture Day 21",.35 +/- .07%
same,Percent Round Spermatids With Micronuclei,"[1]; CP 10^-6 moles/L, 24 hr incubation, post-CP culture Day 29, p < .05",.99 +/- .01%
same,Micronucleus %,"[1]; CP 10^-6 moles/L, 72 hr incubation, cultured 6 days after",.14 +/- .06%
same,induction of spermatid micronuclei,"[1]; CP, 24 hr incubation, 29 days after exposure",dose-dependent increase in spermatid micronuclei
same,lowest effective dose (spermatid micronuclei),"[1]; CP, 24 hr incubation, 29 days after exposure, = […]",10^-6 M
same,increase in micronuclei in spermatids from pachytene through diplotene stages,"[1]; CP, 72 hr incubation, 6 days culture",did not result in significant increases in micronuclei
same,stage restriction of clastogenesis,"[1]; CP, cultured testes",restriction of CP clastogenesis to premeiotic stages
same,stage of cells affected (aberrations),"[1]; CP, in vitro exposure of testis explants",induces aberrations in cells that require 24 to 30 days to develop into round spermatids
same,relative in vitro clastogenic potency,[1],AD>CP>DMBA
"COc1cccc2c1C(=O)c1c(O)c3c(c(O)c1C2=O)C[C@@](O)(C(=O)CO)C[C@@H]3O[C@H]1C[C@H](N)[C@H](O)[C@H](C)O1 [AD, adriamycin]",concentration at which assay was sensitive to clastogenesis,"[1]; AD, 4 hr exposure, day 22, = 0.58 mg/L",10^-6 M
same,concentration at which assay was sensitive to clastogenesis,"[1]; AD, 4 hr exposure, day 30, = 58 μg/L",10^-7 M
same,increase in spermatid micronuclei,"[1]; AD, 4 hr exposure, days 22 and 30, unmodified XSCM (Table 6)",dose-dependent increase in spermatid micronuclei on both days 22 and 30
same,spermatocyte stages most sensitive to clastogenesis,"[1]; AD, 4 hrs exposure (Table 5)",leptotene (day 23) and premeiotic S or type B spermatogonia (day 30)
same,increase in spermatid micronuclei,"[1]; AD, 4 hrs exposure, each time point (Table 5)",dose-dependent increases in spermatid micronuclei at each time point examined
same,increase in assay sensitivity on increasing exposure,"[1]; AD, exposure increased from 4 hrs. to 12 hrs.",1.7 fold
